We go through one substance from patent US6265376A, “Insecticidal plectoxins from plectreurys tristis” (Novartis AG, priority 1995, dated 2001).

One experiment deals with S. exigua. The experiment in a line: Injection of plectoxins into insect larvae (toxicity). The experiment is classed as in vivo, Spodoptera exigua. The protocol: (§1) Polypeptides isolated from or those showing substantial homology to those isolated from the venom of Plectreurys tristis are useful as insecticidal agents. In particular, they are useful insecticidal agents against insects of the order Lepidoptera, for example, Heliothis virescens, Autographa californica, and the insects of the genus Spodoptera. Both the purified plectoxin and viruses transformed to produce the plectoxin are assayed for bioactivity on larvae including: tobacco hornworms (Manduca sexta), tobacco budworms (Heliothis virescens) and beet armyworm (Spodoptera exizua).
Various plectoxins isolated from venom are injected into three different insect larvae. […] ED50 is the dose which is effective to paralyze 50% of the larvae at one hour. Values with an asterisk denote duplicate analysis with samples from different milking lots.

Another experiment relates to insects. The experiment in a line: Insect toxicity (paralysis and/or death of test larvae), general statements. Particulars: injection of a number of different insects. It counts as in vivo. As to the method:
as §1

In a further experiment the test system is H. virescens. Put plainly: Injection of plectoxins into insect larvae (toxicity). The experiment is classed as in vivo, Heliothis virescens. As to the method:
as §1
(§2) Venom from P. tristis is obtained from Spider Pharm, Black Canyon City, Az. Crude venom (approximately 200 μl per injection) is fractionated by reversed-phase liquid chromatography (LC) using the following conditions: a Perkin Elmer Model 410 Bio solvent delivery system; 5 ml injection loop; Hewlett Packard Model 1040M diode array detector at 220 and 280 nm; Aquapore ODS column, 22×1 cm (Brownlee Labs, Santa Clara, Calif.); 4.5 ml/min; acetonitrile (MeCN) in a constant 0.1% trifluoroacetic acid, 0% MeCN for 5 min, then linear gradient of 0 to 60% MeCN over 55 min. Similar fractions from several runs are combined and portions are removed for bioassays. […]

For another experiment, the system named is M. sexta. The experiment is described as above. The experiment is classed as in vivo, Manduca sexta. As to the method: as §1, §2
[1] abbreviates: dose paralyzing 50% of larvae at one hour.
The mark [2] stands for this setting: lethal dose for 50% of treated larvae at 24 hours.

Bounds are passed on as bounds.

With “Plt-VI (AVKCIGWQETCNGNLPCCNECVMCECNIMGQNCRCNHPKATNECES)”, the ED50 in the experiment with S. exigua (setting [1]) stood at 0.32 µg/g; with H. virescens (setting [1]), 0.21 µg/g; with M. sexta (setting [1]), 0.10 µg/g. For the same substance, the LD50 in the experiment with S. exigua (setting [2]) was over 10 µg/g; with H. virescens (setting [2]), 1.2 µg/g; in the experiment with M. sexta (setting [2]), 0.15 µg/g. In addition, the “paralytic activity upon injection” value in the experiment on insects was “very high level of paralytic activity”.
